Earlier results on 1 molecule are cited in patent US6946461B2, “Imidazolophthalazine derivatives as ligands for GABAA receptors” (Merck Sharp & Dohme Ltd., priority 2000, dated 2005).

The test system of one series is spatial learning. The conditions noted are these: reported by McNamara and Skelton.
For series [1] the following is noted: in vivo.

As to `COC(=O)c1cc2c(cn1)[nH]c1ccccc12` [β-CCM], in the series with spatial learning, the “spatial learning in the Morris watermaze” value is “enhanced spatial learning”. The proconvulsant effect entry in series [1] is “proconvulsant”.
